This assay concerns HUVEC (human umbilical vein endothelial cells), VEGF-induced proliferation. Briefly: Cell proliferation inhibitory action test using a VEGF-induced HUVEC proliferation reaction evaluation system. The following applies: 20 μg/mL test compound solution, 5 μL per well, WST-8 three days after VEGF addition, absorbance at 450 nm, control 1.0% DMSO; for inhibition at 20 µg/mL (stock): Homo sapiens, 72 h, read-out: Cell proliferation inhibition rate (%). Format: cell-based. The protocol:
In order to find the usefulness of the compound of the present invention, a test for inhibitory effects of the compound of the present invention on cell proliferation was carried out using a VEGF-induced HUVEC proliferation reaction evaluation system (HUVEC: human umbilical vein endothelial cells), which is a method of evaluating antiangiogenic effects of drugs, and the antiangiogenic effects of the compounds were evaluated.
As one of the widely used methods of evaluating antiangiogenic effects of drugs, a cell proliferation inhibitory action test using a VEGF-induced HUVEC proliferation reaction evaluation system has been reported in Cancer Res., 59, 99-106 (1999). According to the method described in the above-mentioned document, a cell proliferation inhibitory action test of the compound of the present invention was carried out, and the cell proliferation inhibition rate was calculated. Then, the antiangiogenic effect of each of the compound of the present invention was evaluated using the obtained rate as an index.
(Preparation of Test Compound Solution)
Each test compound was dissolved in dimethyl sulfoxide (hereinafter abbreviated as DMSO), and the obtained solution was diluted with a commercially available phosphate buffer solution (hereinafter abbreviated as PBS), whereby a 20 μg/mL test compound solution was prepared.
(Preparation of HUVEC Suspension)
HUVEC was suspended in F12K medium containing 0.5% fetal bovine serum (hereinafter abbreviated as FBS), whereby a 2×10^4 cells/mL HUVEC suspension was prepared.
(Preparation of VEGF Solution)
VEGF was dissolved in PBS containing 0.1% bovine serum albumin, and the obtained solution was diluted with F12K medium containing 0.5% FBS, whereby a 400 ng/mL VEGF solution was prepared.
(Test Method and Measurement Method)
1) The HUVEC suspension was inoculated in an amount of 100 μL into each well of a 96-well plate coated with type I collagen (2×10^3 cells per well).
2) One day after the inoculation, the test compound solution was added in an amount of 5 μL per well.
3) One hour after the addition of the test compound solution, the VEGF solution was added in an amount of 5 μL per well.
4) Three days after the addition of the VEGF solution, WST-8 assay reagent (Dojin Chemical Co., Ltd.) was added in an amount of 10 μL per well.
5) After 3 hours, the above-mentioned plate was attached to an absorptiometer (Multilabel Counter ARVO), and an absorbance at 450 nm of suspension in each well (hereinafter referred to as a test compound suspension) was measured.
6) A test was carried out in the same manner as in the above 1) to 5) except that 1.0% DMSO was used instead of the test compound solution. The result was used as a control.
Incubation was carried out under conditions of 37° C., 5% carbon dioxide and […] in an incubator throughout the above-mentioned test steps.
(Calculation of Cell Proliferation Inhibition Rate)
The cell proliferation inhibition rate (%), which was used as an index of an antiangiogenic effect, was calculated using the following calculation equation. Cell proliferation inhibition rate (%)=100−{(Absorbance of test compound suspension−A)/(absorbance of control−A)}×100 (Calculation Equation) A: Absorbance of only cell suspension (cells+medium) (Test Results and Discussion)
Background: Tetrazolium assays rely on reduction of a dye to a coloured formazan, in cell work by metabolically active cells.

Consider `Cc1cc(C)cc(NC(=O)c2cccnc2SCc2ccnc(N)n2)c1` [Compound 1-1, 2-(2-Aminopyrimidin-4-ylmethylthio)-N-(3,5-dimethylphenyl)pyridine-3-carboxamide], for which the inhibition at 20 µg/mL (stock) is 96%. Same read-out and setting: in the case of `CC(C)c1cccc(NC(=O)c2cccnc2SCc2ccnc(N)n2)c1` [Compound 1-7, 2-(2-Aminopyrimidin-4-ylmethylthio)-N-(3-isopropylphenyl)pyridine-3-carboxamide] it was 96%. Turning to `Nc1nccc(CSc2ncccc2C(=O)Nc2cc3ccccc3cn2)n1` [Compound 1-12, 2-(2-Aminopyrimidin-4-ylmethylthio)-N-(isoquinolin-3-yl)pyridine-3-carboxamide], the inhibition at 20 µg/mL (stock) was determined as 84%. Consider `Cc1cc(C)cc(NC(=O)c2ccccc2SCc2ccnc(N)n2)c1` [Compound 1-16, 2-(2-Aminopyrimidin-4-ylmethylthio)-N-(3,5-dimethylphenyl)benzamide], for which the inhibition at 20 µg/mL (stock) was 100%.

On to `Cc1cc(C)cc(NC(=O)c2sccc2SCc2ccnc(N)n2)c1` [Compound 1-20, 3-(2-Aminopyrimidin-4-ylmethylthio)-N-(3,5-dimethylphenyl) thiophene-2-carboxamide], for which the “Cell proliferation inhibition rate (%)” value amounted to 100%.

As to `Cc1cc(C)cc(NC(=O)c2cccnc2SCc2ccncn2)c1` [Compound 1-22, N-(3,5-Dimethylphenyl)-2-(pyrimidin-4-ylmethylthio)pyridine-3-carboxamide], the inhibition at 20 µg/mL (stock) is 100%.

For the molecule `CSc1nccc(CSc2ncccc2C(=O)Nc2cc(C)cc(C)c2)n1` [Compound 1-26, N-(3,5-Dimethylphenyl)-2-(2-methylthiopyrimidin-4-ylmethylthio)pyridine-3-carboxamide], the inhibition at 20 µg/mL (stock) worked out at 100%.

With `CNc1nccc(CSc2ncccc2C(=O)Nc2cc(C)cc(C)c2)n1` [Compound 1-33, N-(3,5-Dimethylphenyl)-2-(2-methylaminopyrimidin-4-ylmethylthio)pyridine-3-carboxamide], the inhibition at 20 µg/mL (stock) came out at 100%. With `CC(=O)Nc1nccc(CSc2ncccc2C(=O)Nc2cc(C)cc(C)c2)n1` [Compound 2-1, 2-(2-Acetylaminopyrimidin-4-ylmethylthio)-N-(3,5-dimethylphenyl)pyridine-3-carboxamide], the inhibition at 20 µg/mL (stock) was 100%. With `CC(=O)Nc1nccc(CSc2ncccc2C(=O)Nc2ccc(Cl)cc2)n1` [Compound 2-2, 2-(2-Acetylaminopyrimidin-4-ylmethylthio)-N-(4-chlorophenyl)pyridine-3-carboxamide], the inhibition at 20 µg/mL (stock) turned out to be 97%. With `CC(=O)Nc1nccc(CSc2ncccc2C(=O)Nc2ccc3c(c2)CCC3)n1` [Compound 2-4, 2-(2-Acetylaminopyrimidin-4-ylmethylthio)-N-(indan-5-yl)pyridine-3-carboxamide], the inhibition at 20 µg/mL (stock) stood at 99%. The same measure, in the same setting: to `CC(=O)N(C(C)=O)c1nccc(CSc2ncccc2C(=O)Nc2cc(C)cc(C)c2)n1` [Compound 3-1, 2-(2-Diacetylaminopyrimidin-4-ylmethylthio)-N-(3,5-dimethylphenyl)pyridine-3-carboxamide] belongs 100%. In the case of `Cc1cc(C)cc(NC(=O)c2cccnc2SCc2ccnc(NC3CC3)n2)c1` [Compound 4-1, 2-(2-Cyclopropylaminopyrimidin-4-ylmethylthio)-N-(3,5-dimethylphenyl)pyridine-3-carboxamide], the inhibition at 20 µg/mL (stock) amounted to 100%. In the case of `Cc1cc(C)cc(NC(=O)c2cccnc2SCc2ccnc(N3CCOCC3)n2)c1` [Compound 4-4, N-(3,5-Dimethylphenyl)-2-(2-morpholinopyrimidin-4-ylmethylthio)pyridine-3-carboxamide], the inhibition at 20 µg/mL (stock) is 100%. Turning to `O=C(Nc1ccc(OC(F)(F)F)cc1)c1cccnc1SCc1ccnc(NC2CC2)n1` [Compound 4-6, 2-(2-Cyclopropylaminopyrimidin-4-ylmethylthio)-N-(4-trifluoromethoxyphenyl)pyridine-3-carboxamide], the inhibition at 20 µg/mL (stock) worked out at 100%. Same read-out and setting: in the case of `O=C(Nc1cccc(C(F)(F)F)c1)c1cccnc1SCc1ccnc(NC2CC2)n1` [Compound 4-9, 2-(2-Cyclopropylaminopyrimidin-4-ylmethylthio)-N-(3-trifluoromethylphenyl)pyridine-3-carboxamide] it was 100%. On the same count and under the same terms, in the case of `Cc1cc(C)cc(NC(=O)c2cccnc2SCc2ccnc(NCCO)n2)c1` [Compound 4-19, N-(3,5-Dimethylphenyl)-2-[2-(2-hydroxyethyl)aminopyrimidin-4-ylmethylthio]pyridine-3-carboxamide] it was 100%; in that of `CCOCCNc1nccc(CSc2ncccc2C(=O)Nc2ccc(OC(F)(F)F)cc2)n1` [Compound 4-22, 2-[2-(2-Ethoxyethyl)aminopyrimidin-4-ylmethylthio]-N-(4-trifluoromethoxyphenyl)pyridine-3-carboxamide], 100%; in that of `Cc1cc(C)cc(NC(=O)c2cccnc2SCc2ccnc(N3CCN(CCO)CC3)n2)c1` [Compound 4-25, N-(3,5-Dimethylphenyl)-2-[2-(4-(2-hydroxyethyl)piperazin-1-yl)pyrimidin-4-ylmethylthio]pyridine-3-carboxamide], 100%. Regarding `O=C(Nc1cccc(C(F)(F)F)c1)c1cccnc1SCc1ccnc(N2CCNCC2)n1` [Compound 4-36, 2-[2-(piperazin-1-yl)pyrimidin-4-ylmethylthio]-N-(3-trifluorophenyl)pyridine-3-carboxamide], the “Cell proliferation inhibition rate (%)” value stood at 100%.

These data come from patent US8507485B2, “Cyclic compound having pyrimidinylalkylthio group” (Santen Pharmaceutical Co., Ltd., priority 2005, dated 2013).
